Where a name gives a salt, the structure may show the parent alone.
Legend:
[1] = system: cultured human mast cells; experiment: Degranulation inhibition test using cultured human mast cells (IgE cross-linking, β-Hexosaminidase release); type: cell-based; settings: Mast cell; cultured human mast cells, anti-hIgE stimulation, β-Hexosaminidase index, average; read-out: human degranulation ave. IC50
Method: Degranulation Inhibition Test Using Cultured Human Mast Cells
(1) Separation of Hematopoietic Stem Cells;
After 10 to 60 mL of umbilical cord blood collected with heparin was diluted with an equivalent amount of buffer (0.5% BSA, 2 mM EDTA/PBS-), it was superposed on Ficoll-Paque (Amersham Pharmacia Biotech) (Ficoll/Blood (1:2)) and mononuclear leukocyte fraction was collected by centrifuging it at 400 G (1350 rpm) 4° C. for 30 minutes. After centrifugal washing (1500 rpm, 5 min, 4° C.×3) with buffer, the number of cells was counted and 0.1 mL of CD34 Progenitor Cell Isolation Kit (Miltenyi Biotec), Reagent A1 (Fc blocking) was added for 1×10^8 cells. After agitation, 0.1 mL of Reagent A2 (CD34 antibody-hapten) was added (final volume 0.5 mL/1×10^8 cells) and incubated at 9° C. for further 15 minutes after agitation. After centrifugal washing (1500 rpm, 5 min, 4° C.×3), it was resuspeded in a buffer (0.4 mL) and 0.1 mL of Reagent B (anti hapten antibody-microbeads) was added and agitated (final volume 0.5 mL/1×10^8 cells) and incubated at 9° C. for further 15 minutes. After centrifugal washing (1500 rpm, 5 min, 4° C.×2), it was resuspeded in a buffer (0.5 mL) and loaded on CS column (Miltenyi Biotec) set in MACS (MAgnetic Cell Sorting system; Miltenyi Biotec, Daiichi Pure Chemicals) and washed with 30 mL of buffer to remove CD34^− cells. The column was separated from MACS and eluted with 30 mL of buffer and CD34^+ cells bound to the column were collected and used as a hematopoietic stem cell population.
(2) Acquisition of Human Mast Cells by Long-Term Culturing of Hematopoietic Stem Cells;
The CD34^+ cells separated in (1) were resuspended in Iscove's Modified Dulbecco's Medium (IMDM, Gibco) containing human (rh)SCF (1 μg/mL, Peprotech), rhIL-6 (0.5 μg/mL, Peprotech), rhIL-3 (10 ng/mL, Peprotech), 1% Insulin-Transferrin (Gibco), 5×10^−5M 2-ME (Gibco), 0.1% BSA (Sigma) in a density of 1×10^6 cells/ml and disseminated on 24-well culture plate with a dose of 0.1 mL/well and 0.9 ml of IMDM (Methocult SF^BIT StemCell technology) containing 0.9% methyl cellulose was added and culturing was started. The above culture medium (excluding methyl cellulose) was added in a week and after that 100 μL/well of the above culture medium (further excluding IL-3) was added at an interval of every once a week so that cells were diluted to maintain 10^5 cells/mL/well order and cultured more than about 8 weeks and thereby human culture mast cells were obtained.
(3) Expression Enhancement of FcεRI and Inhibition Test IgE Cross-Linking Stimulating Degranulation;
rhIL-4 (final concentration 1 ng/mL, R & D) and Homo sapiens(h) IgE (final concentration 0.5 μg/mL, CHEMICON) were added to the obtained human culture mast cells, and they were incubated for 5 days to enhance the expression of FcεRI. After incubation, cells were collected and, after centrifugal washing (IMDM), they were disseminated on 96-well culture plate in 5×10^4 cells/80 μL/well.
10 μL of a compound 10-fold diluted with IMDM after dissolved in DMSO (DMSO final concentration 0.1%) was added and reacted at 37° C. for 10 minutes. Further, 10 μL of anti-hIgE Ab (CHEMICON) adjusted to 100 μg/mL (final concentration 10 μg/mL) was added and degranulation was caused by being stimulated at 37° C. for 30 minutes. After centrifugation, 50 μL/well of the supernatant was collected and stored at −40° C. untill the quantity of degranulation was measured. The measurement of quantity of degranulation was performed using enzymatic activity of β-Hexosaminidase contained in the granulates as an index. That is, an equivalent amount of p-nitrophenyl-N-acetyl-β-D-glucosaminide (1 mM) (containing 0.1% Triton X-100) which is a substrate of β-Hexosaminidase was added to 50 μL of the culture filtrate, and after reacted at 37° C. for 2 hours, the reaction was terminated by using 100 μL of Carbonate buffer (0.1M, pH 10). […]

[2] = target: GST-Syk Full Protein (human) (Homo sapiens, UniProt P43405); experiment: Syk kinase inhibition test (HTRF method); type: biochemical; settings: HTRF, 100 μM ATP, 30 min room temperature, average; read-out: sykHTRF ave IC50
Outline: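 HTRF read-out: after EDTA termination and 1 h with XL665-streptavidin and Eu-anti-phosphotyrosine, the 665/620 nm ratio was measured. The reaction ran 30 min at 20–25 °C with final 6.4 nM human GST-Syk, 250 nM biotinylated peptide, 100 μM ATP, pH 7.0 HEPES buffer, 2% DMSO.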

| SMILES | IC50 [1] [µM] | IC50 [2] [µM] |
| --- | --- | --- |
| Cc1ccnc(Nc2cccc(-c3cnc([C@@H]4COC(C)(C)N4C(=O)OC(C)(C)C)s3)n2)c1 [Compound A-12, (S)-2,2-dimethyl-4-{5-[6-(4-methylpyridin-2-ylamino)pyridin-2-yl]thiazol-2-yl}oxazolidine-3-carboxylic acid tert-butyl ester] | > 1 | > 1 |
| Cc1ccnc(Nc2cccc(-c3cnc([C@@H](N)CO)s3)n2)c1 [Compound A-13, (S)-2-amino-2-{5-[6-(4-methylpyridin-2-ylamino)pyridin-2-yl]thiazol-2-yl}ethanol] | 0.1 to 1 | 0.1 to 1 |
| Cc1ccnc(Nc2cccc(-c3cnc([C@@H]4COC(=O)N4)s3)n2)c1 [Compound A-14, (S)-4-{5-[6-(4-methylpyridin-2-ylamino)pyridin-2-yl]thiazol-2-yl}oxazolidin-2-one] | 0.1 to 1 | < 0.1 |
| Cc1ccnc(Nc2cccc(-c3cnc(N4CCC(CC(=O)O)CC4)s3)n2)c1 [Compound A-15, (1-{5-[6-(4-methylpyridin-2-ylamino)pyridin-2-yl]thiazol-2-yl}piperidin-4-yl)acetic acid dihydrochloride] | 0.1 to 1 | < 0.1 |
| Cc1ccnc(Nc2cccc(-c3cnc(N(C)C[C@H]4CC[C@H](C(=O)O)CC4)s3)n2)c1 [Compound A-16, trans-4-[(N-methyl-N-{5-[6-(4-methylpyridin-2-ylamino)pyridin-2-yl]thiazol-2-yl}amino)methyl]cyclohexanecarboxylic acid] | 0.1 to 1 | < 0.1 |
| Cc1ccnc(Nc2cccc(-c3cnc(N4CCC(CCC(=O)O)CC4)s3)n2)c1 [Compound A-17, 3-(1-{5-[6-(4-methyl-pyridin-2-ylamino)pyridin-2-yl]thiazol-2-yl}piperidin-4-yl)propionic acid] | 0.1 to 1 | < 0.1 |
| CCC(=O)Nc1nc(C)c(-c2cccc(Nc3cc(C)ccn3)n2)s1 [Compound A-19, N-{4-methyl-5-[6-(4-methylpyridin-2-ylamino)pyridin-2-yl]thiazol-2-yl}propionamide] | 0.1 to 1 | < 0.1 |
| CC(=O)Nc1nc(C)c(-c2cccc(Nc3cc(C)ccn3)n2)s1 [Compound A-20, N-{4-methyl-5-[6-(4-methylpyridin-2-ylamino)pyridin-2-yl]thiazol-2-yl}acetamide] | 0.1 to 1 | < 0.1 |
| CC(=O)Nc1nc(C)c(-c2cncc(Nc3cc(C)ccn3)n2)s1 [Compound A-21, N-{4-methyl-5-[6-(4-methylpyridin-2-ylamino)pyrazin-2-yl]thiazol-2-yl}acetamide] | 0.1 to 1 | < 0.1 |
| COc1cc(Nc2cccc(-c3sc(NC(C)=O)nc3C)n2)ncn1 [Compound A-22] | > 1 | 0.1 to 1 |
| Cc1ccnc(Nc2cccc(-c3cncs3)n2)c1 [Compound A-24] | > 1 | 0.1 to 1 |
| CC(=O)O[C@@H](C)c1ncc(-c2cccc(Nc3cc(C)ccn3)n2)s1 [Compound A-25, acetic acid(S)-1-{5-[6-(4-methylpyridin-2-ylamino)pyridin-2-yl]thiazol-2-yl}ethyl ester] | 0.1 to 1 | < 0.1 |
| Cc1ccnc(Nc2cccc(-c3cnc([C@H](C)O)s3)n2)c1 [Compound A-26, (S)-1-{5-[6-(4-methylpyridin-2-ylamino)pyridin-2-yl]thiazol-2-yl}ethanol] | 0.1 to 1 | < 0.1 |
| CC(=O)c1ncc(-c2cccc(Nc3cc(C)ccn3)n2)s1 [Compound A-27, 1-{5-[6-(4-methylpyridin-2-ylamino)pyridin-2-yl]thiazol-2-yl}ethanone] | 0.1 to 1 | < 0.1 |
| CCOC(=O)c1ncc(-c2cccc(Nc3cc(C)ccn3)n2)s1 [Compound A-28, 5-[6-(4-methylpyridin-2-ylamino)pyridin-2-yl]thiazole-2-carboxylic acid ethyl ester] | 0.1 to 1 | < 0.1 |
| Cc1ccnc(Nc2cccc(-c3cnc(C(=O)NCCO)s3)n2)c1 [Compound A-29] | 0.1 to 1 | 0.1 to 1 |

| SMILES | IC50 [1] [µM] | IC50 [2] [µM] |
| --- | --- | --- |
| CC(=NO)c1ncc(-c2cccc(Nc3cc(C)ccn3)n2)s1 [Compound A-30, 1-{5-[6-(4-methylpyridin-2-ylamino)pyridin-2-yl]thiazol-2-yl}ethanone oxime] | 0.1 to 1 | < 0.1 |
| Cc1ccnc(Nc2cccc(-c3cnc([C@H](C)NC(=O)C(C)C)s3)n2)c1 [Compound A-31] | 0.1 to 1 | 0.1 to 1 |
| Cc1ccnc(Nc2cccc(-c3cnc([C@H](C)NC(=O)[C@H](C)O)s3)n2)c1 [Compound A-32] | 0.1 to 1 | 0.1 to 1 |
| Cc1ccnc(Nc2cccc(-c3cnc([C@@H]4CCC(=O)O4)s3)n2)c1 [Compound A-33, (S)-5-{5-[6-(4-methylpyridin-2-ylamino)pyridin-2-yl]thiazol-2-yl}dihydrofuran-2-one] | 0.1 to 1 | < 0.1 |
| Cc1ccnc(Nc2cccc(-c3cnc(C(=O)NC(C)(C)CO)s3)n2)c1 [Compound A-34] | > 1 | 0.1 to 1 |
| C/C(=N\OCCO)c1ncc(-c2cccc(Nc3cc(C)ccn3)n2)s1 [Compound A-35, 1-{5-[6-(4-methylpyridin-2-ylamino)pyridin-2-yl]thiazol-2-yl}ethanone 0-(2-hydroxyethyl)oxime] | 0.1 to 1 | < 0.1 |
| Cc1ccnc(Nc2cccc(-c3cnc([C@@H](NC(=O)OC(C)(C)C)C(C)C)s3)n2)c1 [Compound A-36] | > 1 | > 1 |
| Cc1ccnc(Nc2cccc(-c3cnc([C@@H](N)C(C)C)s3)n2)c1 [Compound A-37] | > 1 | 0.1 to 1 |
| CC(=O)N[C@H](c1ncc(-c2cccc(Nc3cc(C)ccn3)n2)s1)C(C)C [Compound A-38] | 0.1 to 1 | 0.1 to 1 |
| Cc1ccnc(Nc2cccc(-c3cnc([C@H](Cc4ccccc4)NC(=O)OC(C)(C)C)s3)n2)c1 [Compound A-39] | > 1 | > 1 |
| Cc1ccnc(Nc2cccc(-c3cnc([C@@H](N)Cc4ccccc4)s3)n2)c1 [Compound A-40] | > 1 | 0.1 to 1 |
| CC(=O)N[C@@H](Cc1ccccc1)c1ncc(-c2cccc(Nc3cc(C)ccn3)n2)s1 [Compound A-41] | > 1 | 0.1 to 1 |
| Cc1ccnc(Nc2cccc(-c3cnc([C@@H]4CCCN4)s3)n2)c1 [Compound A-42] | > 1 | 0.1 to 1 |
| Cc1ccnc(Nc2cccc(-c3cnc([C@H](COCc4ccccc4)NC(=O)OC(C)(C)C)s3)n2)c1 [Compound A-43] | > 1 | > 1 |
| Cc1ccnc(Nc2cccc(-c3cnc([C@@H](N)COCc4ccccc4)s3)n2)c1 [Compound A-44] | > 1 | > 1 |
| CC(=O)N[C@@H](COCc1ccccc1)c1ncc(-c2cccc(Nc3cc(C)ccn3)n2)s1 [Compound A-45] | > 1 | > 1 |

Source: US7803801B2, “Aminopyridine compounds having Syk inhibitory activity” (Japan Tobacco, Inc., priority 2005, dated 2010)
